Source: the NIST ThermoML archive (doi:10.1016/j.jct.2012.09.004)

Legend:
[1] = Pendant drop shape
[2] = refractive index (Na D-line) (dimensionless); details: 101.33 kPa, Liquid, Standard Abbe refractometry
[3] = refractive index (Na D-line) (dimensionless); wn = mass fraction of the nth substance listed; details: 101 kPa, Liquid, Standard Abbe refractometry
[4] = wn = mass fraction of the nth substance listed; details: Pendant drop shape

CC(CC(C)(C)C)CP(=O)([O-])CC(C)CC(C)(C)C.CCCCCCCCCCCCCC[P+](CCCCCC)(CCCCCC)CCCCCC
Details | refractive index | surface tension liquid-gas [mN/m]
[1], 297.9 K | – | 28.2
[1], 307.9 K | – | 27.6
[1], 317.7 K | – | 26.9
[1], 328.1 K | – | 26.2
[1], 338 K | – | 25.5
[1], 342.9 K | – | 25
[2], 283.15 K | 1.47702 | –
[2], 288.15 K | 1.47538 | –
[2], 293.15 K | 1.47374 | –
[2], 298.15 K | 1.47209 | –
[2], 303.15 K | 1.47044 | –
[2], 308.15 K | 1.46879 | –
[2], 313.15 K | 1.46712 | –
[2], 318.15 K | 1.46546 | –
[2], 323.15 K | 1.46383 | –
[2], 328.15 K | 1.46216 | –
[2], 333.15 K | 1.46056 | –
[2], 338.15 K | 1.45893 | –
[2], 343.15 K | 1.45716 | –
[2], 348.15 K | 1.45553 | –
[2], 353.15 K | 1.45387 | –

CCCCCCCCCCCCCC[P+](CCCCCC)(CCCCCC)CCCCCC.O=S(=O)([N-]S(=O)(=O)C(F)(F)F)C(F)(F)F
Details | refractive index | surface tension liquid-gas [mN/m]
[1], 298.2 K | – | 30.1
[1], 307.9 K | – | 29.5
[1], 317.9 K | – | 28.7
[1], 327.9 K | – | 28.1
[1], 337.8 K | – | 27.5
[1], 343.2 K | – | 27.3
[2], 283.15 K | 1.45436 | –
[2], 288.15 K | 1.45279 | –
[2], 293.15 K | 1.4512 | –
[2], 298.15 K | 1.4496 | –
[2], 303.15 K | 1.44797 | –
[2], 308.15 K | 1.44637 | –
[2], 313.15 K | 1.44476 | –
[2], 318.15 K | 1.44317 | –
[2], 323.15 K | 1.44158 | –
[2], 328.15 K | 1.43948 | –
[2], 333.15 K | 1.43836 | –
[2], 338.15 K | 1.43681 | –
[2], 343.15 K | 1.43524 | –
[2], 348.15 K | 1.4337 | –
[2], 353.15 K | 1.43213 | –

CC(CC(C)(C)C)CP(=O)([O-])CC(C)CC(C)(C)C.CCCCCCCCCCCCCC[P+](CCCCCC)(CCCCCC)CCCCCC + O
w2 = 0.158
Details | refractive index | surface tension liquid-gas [mN/m]
[3], 298.15 K | 1.45864 | –
[3], 303.15 K | 1.45697 | –
[3], 308.15 K | 1.45534 | –
[3], 313.15 K | 1.45363 | –
[3], 318.15 K | 1.45192 | –
[3], 323.15 K | 1.45019 | –
[3], 328.15 K | 1.44849 | –
[3], 333.15 K | 1.44683 | –
[3], 338.15 K | 1.44523 | –
[3], 343.15 K | 1.44374 | –
[3], 348.15 K | 1.4424 | –
[3], 353.15 K | 1.44126 | –
[4], 297.9 K | – | 28.32
[4], 307.9 K | – | 27.7
[4], 317.9 K | – | 27.24
[4], 328.8 K | – | 26.41
[4], 339 K | – | 25.6
[4], 343.4 K | – | 25.34

CCCCCCCCCCCCCC[P+](CCCCCC)(CCCCCC)CCCCCC.O=S(=O)([N-]S(=O)(=O)C(F)(F)F)C(F)(F)F + O
w2 = 0.0023
Details | refractive index | surface tension liquid-gas [mN/m]
[3], 298.15 K | 1.44921 | –
[3], 303.15 K | 1.44765 | –
[3], 308.15 K | 1.44606 | –
[3], 313.15 K | 1.44449 | –
[3], 318.15 K | 1.44293 | –
[3], 323.15 K | 1.44136 | –
[3], 328.15 K | 1.4398 | –
[3], 333.15 K | 1.43822 | –
[3], 338.15 K | 1.43669 | –
[3], 343.15 K | 1.43515 | –
[3], 348.15 K | 1.43362 | –
[3], 353.15 K | 1.43207 | –
[4], 298.1 K | – | 30.05
[4], 307.8 K | – | 29.33
[4], 318 K | – | 28.6
[4], 328 K | – | 27.91
[4], 338.6 K | – | 27.17
[4], 343.3 K | – | 26.88

CCCCCCCCCCCCCC[P+](CCCCCC)(CCCCCC)CCCCCC.N#C[N-]C#N [tetradecyl(trihexyl)phosphonium dicyanamide]
Details | refractive index | surface tension liquid-gas [mN/m]
[1], 298.4 K | – | 32.3
[1], 308 K | – | 31.6
[1], 318 K | – | 30.9
[1], 328.4 K | – | 30.3
[1], 339.2 K | – | 29.7
[1], 343.4 K | – | 29.4
[2], 283.15 K | 1.48861 | –
[2], 288.15 K | 1.48706 | –
[2], 293.15 K | 1.48545 | –
[2], 298.15 K | 1.48387 | –
[2], 303.15 K | 1.48228 | –
[2], 308.15 K | 1.48064 | –
[2], 313.15 K | 1.47902 | –
[2], 318.15 K | 1.47744 | –
[2], 323.15 K | 1.47585 | –
[2], 328.15 K | 1.47421 | –
[2], 333.15 K | 1.47252 | –
[2], 338.15 K | 1.4709 | –
[2], 343.15 K | 1.46926 | –
[2], 348.15 K | 1.46767 | –
[2], 353.15 K | 1.46599 | –

CCCCCCCCCCCCCC[P+](CCCCCC)(CCCCCC)CCCCCC.N#C[N-]C#N [tetradecyl(trihexyl)phosphonium dicyanamide] + O
w2 = 0.0309
Details | refractive index | surface tension liquid-gas [mN/m]
[3], 298.15 K | 1.47866 | –
[3], 303.15 K | 1.47702 | –
[3], 308.15 K | 1.47535 | –
[3], 313.15 K | 1.47367 | –
[3], 318.15 K | 1.47207 | –
[3], 323.15 K | 1.47049 | –
[3], 328.15 K | 1.46893 | –
[3], 333.15 K | 1.46739 | –
[3], 338.15 K | 1.46586 | –
[3], 343.15 K | 1.46442 | –
[3], 348.15 K | 1.46302 | –
[3], 353.15 K | 1.46163 | –
[4], 298.2 K | – | 32.56
[4], 307.8 K | – | 31.8
[4], 318 K | – | 31.2
[4], 328 K | – | 30.5
[4], 338.8 K | – | 29.9
[4], 342.8 K | – | 29.5

CCCCCCCCCCCCCC[P+](CCCCCC)(CCCCCC)CCCCCC.[Br-] [tetradecyltrihexylphosphonium bromide]
Details | refractive index | surface tension liquid-gas [mN/m]
[1], 298.2 K | – | 30.9
[1], 308.5 K | – | 30.2
[1], 318 K | – | 29.6
[1], 328.8 K | – | 28.7
[1], 338.6 K | – | 28.1
[1], 343.4 K | – | 27.9
[2], 283.15 K | 1.49456 | –
[2], 288.15 K | 1.49295 | –
[2], 293.15 K | 1.49139 | –
[2], 298.15 K | 1.48977 | –
[2], 303.15 K | 1.48814 | –
[2], 308.15 K | 1.48654 | –
[2], 313.15 K | 1.4849 | –
[2], 318.15 K | 1.4833 | –
[2], 323.15 K | 1.48167 | –
[2], 328.15 K | 1.47999 | –
[2], 333.15 K | 1.47834 | –
[2], 338.15 K | 1.47677 | –
[2], 343.15 K | 1.47511 | –
[2], 348.15 K | 1.47346 | –
[2], 353.15 K | 1.47189 | –
